Measured values reported in PubChem BioAssay (NCI).
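A five-concentration, 48-hour dose response in 96-well plates underlies each endpoint, interpolated linearly between surrounding concentrations. At the TGI there is no net growth.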

Assays:
Assay in all cases: DTP human tumour cell line panel, 48 h
ACHN renal = system: ACHN renal
HCT-116 colon = system: HCT-116 colon
HL-60(TB) leukemia = system: HL-60(TB) leukemia
HOP-62 NSCLC = system: HOP-62 NSCLC
HS 578T breast = system: HS 578T breast
MCF7 breast = system: MCF7 breast
MDA-MB-231 breast = system: MDA-MB-231 breast
MDA-MB-435 = system: MDA-MB-435
MOLT-4 leukemia = system: MOLT-4 leukemia
NCI-H23 lung = system: NCI-H23 lung
NCI-H522 lung = system: NCI-H522 lung
NCI/ADR-RES ovarian = system: NCI/ADR-RES ovarian
OVCAR-4 ovarian = system: OVCAR-4 ovarian
RPMI-8226 leukemia = system: RPMI-8226 leukemia
RXF 393 renal = system: RXF 393 renal
SN12C renal = system: SN12C renal
T-47D breast = system: T-47D breast
U251 CNS = system: U251 CNS
UACC-62 melanoma = system: UACC-62 melanoma
CAKI-1 renal = system: CAKI-1 renal

Structure (SMILES) | TGI (ACHN renal) [µM] | TGI (HCT-116 colon) [µM] | TGI (HL-60(TB) leukemia) [µM] | TGI (HOP-62 NSCLC) [µM] | TGI (HS 578T breast) [µM] | TGI (MCF7 breast) [µM] | TGI (MDA-MB-231 breast) [µM] | TGI (MDA-MB-435) [µM] | TGI (MOLT-4 leukemia) [µM] | TGI (NCI-H23 lung) [µM] | TGI (NCI-H522 lung) [µM] | TGI (NCI/ADR-RES ovarian) [µM] | TGI (OVCAR-4 ovarian) [µM] | TGI (RPMI-8226 leukemia) [µM] | TGI (RXF 393 renal) [µM] | TGI (SN12C renal) [µM] | TGI (T-47D breast) [µM] | TGI (U251 CNS) [µM] | TGI (UACC-62 melanoma) [µM] | TGI (CAKI-1 renal) [µM]
CC(=O)N1CC(C)(C)c2c1cc(C)c(O)c2C | > 100 | > 100 | > 100 | > 100 | > 100 | > 100 | > 100 | > 100 | > 100 | > 100 | > 100 | > 100 | > 100 | > 100 | > 100 | > 100 | > 100 | > 100 | > 100 | 
OC12C3C4CC5C(C4[C@@H]1Br)C2[C@@](O)(c1c(F)c(F)c(F)c(F)c1F)C53 (stereo partly drawn) | > 100 | > 100 | > 100 | > 100 | 97.5 | 43.7 | > 100 | > 100 | > 100 | > 100 | > 100 | 85.9 | > 100 |  | 94.3 | > 100 | > 100 | > 100 | > 100 | 43.8
CC1=NC2(CCCCC2)N(Cl)C(=O)C1SC#N (stereo not drawn) | 31.6 |  | > 100 | 47.8 | > 100 | 48.9 | 36.5 | 37.7 | 23.7 | 58.9 | 38.8 | 56.2 | 46.2 |  | 32.3 | 36.5 | 62.7 | 37.4 | 27.2 | 
CC(=O)Nc1ccc(N2C(=O)CS(=O)(=O)C2c2cccc(Oc3ccccc3)c2)cc1 (stereo not drawn) | 36.3 | 35.2 | 84.8 | 38.9 | 79.9 | 35.9 | 36 | 48.5 | 62.9 | 43.5 | 41.9 | 48.7 | 38.9 |  | 39.7 | 29.6 | 58.3 | 32.6 | 27.9 | 
O=C1C(Cl)=C(Oc2ccc([N+](=O)[O-])cc2)C(=O)c2c(O)ccc(O)c21 | > 100 | > 100 | 19.2 | > 100 | > 100 | > 100 | 66 | > 67.8 | 25.2 | > 100 | 40.2 | > 100 | > 100 | > 60.1 | 52.5 | > 100 | > 77.7 | > 100 | > 100 | 
O=S(=O)(O)c1ccc2c(N=Nc3ccccc3)c(O)c(S(=O)(=O)O)cc2c1 | > 100 | > 100 | > 100 | > 100 | > 100 | > 100 | > 100 | > 100 | > 100 | > 100 | > 100 | > 100 | > 100 |  | > 100 | > 100 | > 100 | > 100 | > 100 | > 100
O=C1C(=Cc2ccco2)C(=O)C2CCCCC12 (stereo not drawn) | > 100 | > 100 |  | > 100 | > 100 | > 100 | > 100 | > 100 | > 100 | > 100 | > 100 | > 100 | > 100 | > 100 | > 100 | > 100 | > 100 | > 100 | > 100 | > 100
OCc1c2c(cc3c1CC1(C3)Cc3cc4c(c(CO)c3C1)CCC4)CCC2 | 22.6 | 26.4 | 18.4 | 29.6 | 36.9 | 44.6 | 32.1 | 36.9 | 28.3 | 29.8 | 28.5 | 37.8 | 23.5 | 47.5 | 32.7 | 32.4 | 31 | 29.4 | 32.6 | 
CCOC(=O)CN=C1Nc2ccccc2C(=O)N2CSCC12 (stereo not drawn) | > 100 | > 100 |  | > 100 | > 100 | > 100 | > 100 | > 100 | > 100 |  | > 100 | > 100 | > 100 | > 100 | > 100 | > 100 | > 100 | > 100 | > 100 | > 100
Nc1nc2cc(CNc3ccc(C(=O)O)cc3)ccc2nc1-c1ccccc1 | > 100 | > 100 | > 100 | > 100 | > 100 | > 100 | > 100 | > 100 | > 100 | > 100 | > 100 | > 100 | > 100 | > 100 | > 100 | > 100 | > 100 | > 100 |  | 
CN1c2ccccc2C(=O)NC12CCN(Cc1ccccc1)CC2 | > 100 | > 100 | > 100 | > 100 | > 100 | > 100 | > 100 | > 100 | > 100 | > 100 |  | > 100 | > 100 | > 100 | > 100 | > 100 | > 100 | > 100 | > 100 | 
